A value given as a limit tells only on which side of the number the result lay.

Data set [1] has as its system Liver. The experiment in a line: Drug concentration in overnight-fasted Sprague-Dawley rat liver assessed as {5-[6-Amino-9-(2,2-dimethyl-propyl)-9H-purin-8-yl]-furan-2-yl}- phosphonic acid level at 50 mg/kg, po after 1 hr. It is filed as ADME, organism-based. Further details: dose 50 mg/kg, route oral. As to conditions: in vivo.
In data set [2] the test system is Rattus norvegicus. The data set can be described thus: Oral bioavailability in fasted Sprague-Dawley rat assessed as urinary excretion of phosphonic acid up to 300 mg/kg. Type of data set: ADME, organism-based, Urine. As to conditions: in vivo.
The subject of data set [3] is Liver. The experiment in a line: Drug concentration in overnight-fasted Sprague-Dawley rat liver assessed as {5-[6-Amino-9-(2,2-dimethyl-propyl)-9H-purin-8-yl]-furan-2-yl}- phosphonic acid level at 50 mg/kg, po after 2 hrs. It is filed as ADME, organism-based. Further details: dose 50 mg/kg, route oral. The note with it: in vivo.
The next data set deals with Hepatocyte. The experiment in a line: Inhibition of glucose production in rat primary hepatocytes treated for 15 to 30 mins prior to gluconeogenic substrate dihydroxyacetone addition. Type of data set: functional, cell-based.
The subject of data set [4] is Rattus norvegicus. The experiment in a line: Increase in fructose-1,6-bisphosphate level in overnight-fasted Sprague-Dawley rat liver at 20 mg/kg, ip relative to control. Type of data set: organism-based. More on the design: dose 20 mg/kg, route intraperitoneal. As to conditions: in vivo.
Data set [5] concerns the target T1, Glycogen phosphorylase, muscle form (Oryctolagus cuniculus, UniProt P00489).
T1 sequence (P00489 whole entry): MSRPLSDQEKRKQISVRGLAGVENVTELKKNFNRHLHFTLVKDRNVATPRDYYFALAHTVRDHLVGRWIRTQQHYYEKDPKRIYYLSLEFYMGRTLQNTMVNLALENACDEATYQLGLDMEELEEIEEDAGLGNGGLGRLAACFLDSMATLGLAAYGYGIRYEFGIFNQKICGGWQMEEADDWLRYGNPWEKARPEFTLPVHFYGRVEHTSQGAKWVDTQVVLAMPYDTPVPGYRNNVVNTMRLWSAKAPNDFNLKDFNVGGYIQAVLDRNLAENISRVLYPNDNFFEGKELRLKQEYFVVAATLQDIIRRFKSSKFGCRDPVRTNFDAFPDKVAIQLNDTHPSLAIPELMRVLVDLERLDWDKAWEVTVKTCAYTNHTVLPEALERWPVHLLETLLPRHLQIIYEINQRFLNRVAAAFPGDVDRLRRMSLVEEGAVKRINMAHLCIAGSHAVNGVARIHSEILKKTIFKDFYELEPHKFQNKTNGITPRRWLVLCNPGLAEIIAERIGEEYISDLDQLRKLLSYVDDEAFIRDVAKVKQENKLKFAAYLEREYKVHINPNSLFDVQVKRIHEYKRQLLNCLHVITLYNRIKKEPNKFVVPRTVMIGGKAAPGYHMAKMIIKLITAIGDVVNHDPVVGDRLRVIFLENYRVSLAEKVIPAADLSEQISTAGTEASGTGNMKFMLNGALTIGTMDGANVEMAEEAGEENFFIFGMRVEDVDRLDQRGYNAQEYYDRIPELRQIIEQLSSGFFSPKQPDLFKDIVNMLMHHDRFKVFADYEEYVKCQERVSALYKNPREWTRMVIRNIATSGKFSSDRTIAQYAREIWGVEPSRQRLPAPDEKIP
The experiment in a line: Inhibition of rabbit muscle glycogen phosphorylase.

In data set [6] the test system is Liver. The experiment in a line: Drug concentration in overnight-fasted Sprague-Dawley rat liver at 20 mg/kg, ip after 1 hr. It is filed as ADME, organism-based. More on the design: dose 20 mg/kg, route intraperitoneal. As to conditions: in vivo.
The nature of data set [7]: Inhibition of pig heart AMP deaminase. More on the design: species or system Sus scrofa.
Data set [8] can be described thus: Inhibition of New Zealand white rabbit liver phosphofructokinase. Further details: species or system Oryctolagus cuniculus.
The nature of data set [9]: Plasma concentration in overnight-fasted Sprague-Dawley rat at 20 mg/kg, ip after 1 hr. It is filed as ADME, organism-based. More on the design: dose 20 mg/kg, route intraperitoneal.
Another data set addresses Adenosine kinase (Homo sapiens, UniProt P55263). The experiment in a line: Inhibition of human recombinant adenosine kinase expressed in Escherichia coli.
In data set [10] the test system is Rattus norvegicus. The experiment in a line: Reduction in blood glucose level in overnight-fasted Sprague-Dawley rat at 20 mg/kg, ip within 1 hr. It is filed as organism-based. Further details: dose 20 mg/kg, route intraperitoneal; scale not given: the % may be the effect or the level left. The note with it: in vivo.

Sequence of Adenosine kinase (P55263 whole entry): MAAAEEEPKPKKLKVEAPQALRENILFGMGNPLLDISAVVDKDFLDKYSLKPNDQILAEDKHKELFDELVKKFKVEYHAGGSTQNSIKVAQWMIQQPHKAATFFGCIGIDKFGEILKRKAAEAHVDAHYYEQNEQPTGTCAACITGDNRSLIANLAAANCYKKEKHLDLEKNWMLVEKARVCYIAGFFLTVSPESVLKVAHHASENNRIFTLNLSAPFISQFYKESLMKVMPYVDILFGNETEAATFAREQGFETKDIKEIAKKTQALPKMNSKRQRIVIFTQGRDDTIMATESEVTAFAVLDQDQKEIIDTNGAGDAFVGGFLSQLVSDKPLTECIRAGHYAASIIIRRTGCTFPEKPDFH

The term EC50 denotes the midpoint of the concentration-response curve. As to `CC(C)C(=O)OCOP(=O)(OCOC(=O)C(C)C)c1ccc(-c2nc3c(N)ncnc3n2CC(C)(C)C)o1`, the Drug uptake in the data set on Liver [1] came to 3.5 nmol/g; in the data set on Liver [3], 2 nmol/g. The F in the data set on Rattus norvegicus [2] is reported as 8.1%. Also, it took 3 µM to reach a half-maximal effect in the data set with Hepatocyte (EC50).
As usually defined, the IC50 is the midpoint of a concentration-inhibition curve. Consider `CC(C)(C)Cn1c(-c2ccc(P(=O)(O)O)o2)nc2c(N)ncnc21`, for which the results for the Activity with Rattus norvegicus [4] and in the data set on Rattus norvegicus [10] were 10 and 65%, respectively. For the same molecule, the F in the data set on Rattus norvegicus [2] stood at 1.6%. Also, the EC50 in data set [5] is > 100 µM; with Hepatocyte, 90 µM; in [8], > 100 µM. In the data set with Liver [6], the Drug uptake is given as 51.3 nmol/g. For the same molecule, the figures for the IC50 (in data set [7]; on Adenosine kinase) were 390 µM and > 100 µM, respectively. The concentration at 1 h in [9] was 38.5 µM.

The record behind these values is ChEMBL document CHEMBL1138458, “Fructose-1,6-bisphosphatase inhibitors. 1. Purine phosphonic acids as novel AMP mimics” (J Med Chem, 2009).
